# Columns and labels:
# [1] = system: UACC-62; experiment: cells; details: Homo sapiens, UACC-62, 48 h; for GI50: read-out: Median Growth Inhibitory Concentration (GI50); for CC50: read-out: Median Lethal Concentration (LC50)
# [2] = system: Sixty human tumor cell lines; details: NCI Anti-Tumor Screen, several cell types
# [3] = system: NCI-H460; experiment: cells; details: Homo sapiens, NCI-H460, 48 h; for GI50: read-out: Median Growth Inhibitory Concentration (GI50); for CC50: read-out: Median Lethal Concentration (LC50)
# [4] = system: MDA-MB-231; experiment: cells; details: Homo sapiens, MDA-MB-231, 48 h; for GI50: read-out: Median Growth Inhibitory Concentration (GI50); for CC50: read-out: Median Lethal Concentration (LC50)
# [5] = system: SF-295; experiment: cells; details: Homo sapiens, SF-295, 48 h; for GI50: read-out: Median Growth Inhibitory Concentration (GI50); for CC50: read-out: Median Lethal Concentration (LC50)
# [6] = system: HCT-116; experiment: cells; details: Homo sapiens, HCT-116, 48 h; for GI50: read-out: Median Growth Inhibitory Concentration (GI50); for CC50: read-out: Median Lethal Concentration (LC50)
# [7] = system: A498; experiment: cells; details: Homo sapiens, A498, 48 h; for GI50: read-out: Median Growth Inhibitory Concentration (GI50); for CC50: read-out: Median Lethal Concentration (LC50)
# [8] = system: SF-539; experiment: cells; details: Homo sapiens, SF-539, 48 h; for GI50: read-out: Median Growth Inhibitory Concentration (GI50); for CC50: read-out: Median Lethal Concentration (LC50)
# [9] = system: U251; experiment: cells; details: Homo sapiens, U-251, 48 h; for GI50: read-out: Median Growth Inhibitory Concentration (GI50); for CC50: read-out: Median Lethal Concentration (LC50)
# [10] = system: NCI-H226; experiment: cells; details: Homo sapiens, NCI-H226, 48 h; for GI50: read-out: Median Growth Inhibitory Concentration (GI50); for CC50: read-out: Median Lethal Concentration (LC50)
# [11] = system: CAKI-1; experiment: cells; details: Homo sapiens, CAKI-1, 48 h; for GI50: read-out: Median Growth Inhibitory Concentration (GI50); for CC50: read-out: Median Lethal Concentration (LC50)
# [12] = system: HCC-2998; experiment: cells; details: Homo sapiens, HCC 2998, 48 h; for GI50: read-out: Median Growth Inhibitory Concentration (GI50); for CC50: read-out: Median Lethal Concentration (LC50)
# [13] = system: DU-145; experiment: cells; details: Homo sapiens, DU-145, 48 h; for GI50: read-out: Median Growth Inhibitory Concentration (GI50); for CC50: read-out: Median Lethal Concentration (LC50)
# [14] = system: NCI/ADR-RES; experiment: cells; details: Homo sapiens, 48 h; for GI50: read-out: Median Growth Inhibitory Concentration (GI50); for CC50: read-out: Median Lethal Concentration (LC50)
# [15] = system: Vascular Endothelial Growth Factor (VEGF) production by human melanoma cell line RPMI-7951; experiment: VEGF ELISA, RPMI-7951; details: for VEGF ELISA / VEGF: RPMI-7951; for VEGF ELISA: DMSO control 3713
# [16] = system: SW-620; experiment: cells; details: Homo sapiens, SW-620, 48 h; for GI50: read-out: Median Growth Inhibitory Concentration (GI50); for CC50: read-out: Median Lethal Concentration (LC50)
# [17] = system: LOX IMVI; experiment: cells; details: Homo sapiens, 48 h; for GI50: read-out: Median Growth Inhibitory Concentration (GI50)
# [18] = system: MDA-N; experiment: cells; details: Homo sapiens, 48 h; for GI50: read-out: Median Growth Inhibitory Concentration (GI50); for CC50: read-out: Median Lethal Concentration (LC50)
# [19] = system: HOP-62; experiment: cells; details: Homo sapiens, HOP-62, 48 h; for GI50: read-out: Median Growth Inhibitory Concentration (GI50)
# [20] = system: K-562; experiment: cells; details: Homo sapiens, K562, 48 h; for GI50: read-out: Median Growth Inhibitory Concentration (GI50); for CC50: read-out: Median Lethal Concentration (LC50)
# [21] = system: MALME-3M; experiment: cells; details: Homo sapiens, 48 h; for GI50: read-out: Median Growth Inhibitory Concentration (GI50); for CC50: read-out: Median Lethal Concentration (LC50)
# [22] = system: 786-0; experiment: cells; details: Homo sapiens, 786-0, 48 h; for GI50: read-out: Median Growth Inhibitory Concentration (GI50); for CC50: read-out: Median Lethal Concentration (LC50)
# [23] = system: NCI-H23; experiment: cells; details: Homo sapiens, NCI-H23, 48 h; for GI50: read-out: Median Growth Inhibitory Concentration (GI50); for CC50: read-out: Median Lethal Concentration (LC50)
# [24] = system: KM12; experiment: cells; details: Homo sapiens, KM12, 48 h; for GI50: read-out: Median Growth Inhibitory Concentration (GI50); for CC50: read-out: Median Lethal Concentration (LC50)
# [25] = system: MDA-MB-435; experiment: cells; details: Homo sapiens, MDA-MB-435, 48 h; for GI50: read-out: Median Growth Inhibitory Concentration (GI50); for CC50: read-out: Median Lethal Concentration (LC50)
# [26] = system: HT29; experiment: cells; details: Homo sapiens, HT-29, 48 h; for GI50: read-out: Median Growth Inhibitory Concentration (GI50); for CC50: read-out: Median Lethal Concentration (LC50)
# [27] = system: HL-60 (TB); experiment: cells; details: Homo sapiens, HL-60, 48 h; for GI50: read-out: Median Growth Inhibitory Concentration (GI50); for CC50: read-out: Median Lethal Concentration (LC50)
# [28] = system: CCRF-CEM; experiment: cells; details: Homo sapiens, 48 h; for GI50: read-out: Median Growth Inhibitory Concentration (GI50)
# [29] = system: OVCAR-3; experiment: cells; details: Homo sapiens, OVCAR-3, 48 h; for GI50: read-out: Median Growth Inhibitory Concentration (GI50); for CC50: read-out: Median Lethal Concentration (LC50)
# [30] = Homo sapiens, RPMI-7951, 72 h, read-out: VEGF
# [31] = read-out: Median Lethal Concentration (LC50)
compound,measurement,setting,value
"O=C1C(=Cc2ccccc2O)CCCC1=Cc1ccccc1O [EF4, 2,6Bis(2-hydroxybenzylidene)cyclohexanone]",GI50,[1],1500 nM
same,CC50,[1],6.1 µM
same,"GI50 compared with CISPLATIN, in words",[2],lower GI50 than the chemotherapeutic agent CISPLATIN for several cell types
same,"LC50 compared with CISPLATIN, in words",[2],lower LC50 than the chemotherapeutic agent CISPLATIN for several cell types
same,GI50,[3],2.3 µM
same,CC50,[3],40.2 µM
same,GI50,[4],3.5 µM
same,CC50,[4],> 100 µM
same,GI50,[5],3.4 µM
same,CC50,[5],79.5 µM
same,GI50,[6],2200 nM
same,CC50,[6],13.2 µM
same,GI50,[7],2200 nM
same,CC50,[7],16.2 µM
same,GI50,[8],2000 nM
same,CC50,[8],24.7 µM
same,GI50,[9],2000 nM
same,CC50,[9],18.5 µM
same,GI50,[10],19 µM
same,CC50,[10],> 100 µM
same,GI50,[11],3.1 µM
same,CC50,[11],> 100 µM
same,GI50,[12],1700 nM
same,CC50,[12],5.9 µM
same,GI50,[13],1400 nM
same,CC50,[13],7 µM
same,GI50,[14],2700 nM
same,CC50,[14],> 100 µM
same,activity at 5 µM,[15]; [30],70%
same,activity at 20 µM,[15]; [30],0%
same,VEGF ELISA,[15]; 5 μM,2159 pg/ml/well
same,VEGF,"[15]; 5 μM, DMSO control 4197 (EF-25: 1045)",2920 pg/mL
same,VEGF ELISA,[15]; 20 μM,199 pg/ml/well
same,VEGF,"[15]; 20 μM, DMSO control 4197",0 pg/mL
same,GI50,[16],2700 nM
same,CC50,[16],76.3 µM
same,GI50,[17],2200 nM
same,GI50,[18],1600 nM
same,CC50,[18],20.2 µM
same,GI50,[19],2900 nM
same,GI50,[20],2500 nM
same,CC50,[20],91.4 µM
same,GI50,[21],2300 nM
same,CC50,[21],24.3 µM
same,GI50,[22],2300 nM
same,CC50,[22],15.9 µM
same,GI50,[23],1800 nM
same,CC50,[23],9.4 µM
same,GI50,[24],1600 nM
same,CC50,[24],6.5 µM
same,GI50,[25],1800 nM
same,CC50,[25],8 µM
same,GI50,[26],2200 nM
same,CC50,[26],29.1 µM
same,GI50,[27],1900 nM
same,CC50,[27],53.5 µM
same,GI50,[28],1400 nM
same,GI50,[29],3.7 µM
same,CC50,[29],40.7 µM
CC1(/C=C/c2ccccc2O)C=Cc2ccccc2O1 (centres unmarked) [EF7],GI50,[1],12200 nM
same,CC50,[1],49.6 µM
same,GI50,[3],17.6 µM
same,CC50,[3],66.8 µM
same,GI50,[4],19.8 µM
same,CC50,[4],74.6 µM
same,GI50,[5],15.5 µM
same,CC50,[5],55.1 µM
same,GI50,[6],17600 nM
same,CC50,[6],57.6 µM
same,GI50,[7],17200 nM
same,CC50,[7],55.6 µM
same,GI50,[8],17300 nM
same,CC50,[8],55.7 µM
same,GI50,[9],16100 nM
same,CC50,[9],54.4 µM
same,GI50,[10],18.7 µM
same,CC50,[10],78.8 µM
same,GI50,[11],14.3 µM
same,CC50,[11],52.3 µM
same,GI50,[12],18400 nM
same,CC50,[12],56.8 µM
same,GI50,[13],16400 nM
same,CC50,[13],54.8 µM
same,GI50,[14],19300 nM
same,CC50,[14],> 100 µM
same,activity at 20 µM,[15]; [30],27%
same,GI50,[16],16200 nM
same,CC50,[16],65.9 µM
same,GI50,[17],17200 nM
same,CC50,[17]; [31],73.4 µM
same,GI50,[18],16100 nM
same,CC50,[18],56.9 µM
same,GI50,[19],16300 nM
same,CC50,[19]; [31],63.1 µM
same,GI50,[20],14900 nM
same,CC50,[20],70.7 µM
same,GI50,[21],17500 nM
same,CC50,[21],68.8 µM
same,GI50,[22],16400 nM
same,CC50,[22],54.8 µM
same,GI50,[23],17600 nM
same,CC50,[23],62.9 µM
same,GI50,[24],17100 nM
same,CC50,[24],55.5 µM
same,GI50,[25],17500 nM
same,CC50,[25],56 µM
same,GI50,[26],17800 nM
same,CC50,[26],60.6 µM
same,GI50,[27],17700 nM
same,CC50,[27],76 µM
same,GI50,[28],12500 nM
same,CC50,[28]; [31],79.5 µM
same,GI50,[29],15.6 µM
same,CC50,[29],54.5 µM
"CC(=O)O.O=C1C(=Cc2ccccc2F)CNCC1=Cc1ccccc1F [EF24, 3,5-Bis-(2-fluorobenzylidene)-piperidin-4-one-acetate]",GI50,[1],1600 nM
same,CC50,[1],4.5 µM
same,"GI50 compared with CISPLATIN, in words",[2],lower GI50 than the chemotherapeutic agent CISPLATIN for several cell types
same,"LC50 compared with CISPLATIN, in words",[2],lower LC50 than the chemotherapeutic agent CISPLATIN for several cell types
same,GI50,[3],81 µM
same,CC50,[3],50.1 µM
same,GI50,[4],1.3 µM
same,CC50,[4],9.1 µM
same,GI50,[5],85 µM
same,CC50,[5],20.6 µM
same,GI50,[6],200 nM
same,CC50,[6],1.8 µM
same,GI50,[7],900 nM
same,CC50,[7],3.4 µM
same,GI50,[8],300 nM
same,CC50,[8],7.6 µM
same,GI50,[9],200 nM
same,CC50,[9],0.8 µM
same,GI50,[10],3.6 µM
same,CC50,[10],48.3 µM
same,GI50,[11],0.8 µM
same,CC50,[11],27.2 µM
same,GI50,[12],1100 nM
same,CC50,[12],5 µM
same,GI50,[13],700 nM
same,CC50,[13],5.4 µM
same,GI50,[14],900 nM
same,CC50,[14],60.6 µM
same,GI50,[16],200 nM
same,CC50,[16],4.4 µM
same,GI50,[17],200 nM
same,GI50,[18],500 nM
same,CC50,[18],5.6 µM
same,GI50,[19],700 nM
same,GI50,[20],300 nM
same,CC50,[20],75.4 µM
same,GI50,[21],2300 nM
same,CC50,[21],25.2 µM
same,GI50,[22],200 nM
same,CC50,[22],1.6 µM
same,GI50,[23],900 nM
same,CC50,[23],5.3 µM
same,GI50,[24],200 nM
same,CC50,[24],3.4 µM
same,GI50,[25],600 nM
same,CC50,[25],7.4 µM
same,GI50,[26],300 nM
same,CC50,[26],57.3 µM
same,GI50,[27],400 nM
same,CC50,[27],> 100 µM
same,GI50,[28],200 nM
same,GI50,[29],1.1 µM
same,CC50,[29],16.2 µM

# From patent US7371766B2, “Curcumin analogs with anti-tumor and anti-angiogenic properties” (Emory University, priority 1999, dated 2008)
